Laboratory results: patent US11851419B2, “GLP-1R modulating compounds” (Gilead Sciences, Inc., priority 2020, dated 2023)

Columns and labels:
GLP-1R [1] = target: T1, GLP-1R (Homo sapiens, UniProt P43220); assay: GLP-1R Activation - cAMP Assay 2 (cAMP increase in CHO cells stably expressing GLP-1R, pre-spotted agonists); format: cell-based; conditions: assay buffer or 100% Human Plasma (not given), 30 minutes at 37° C.
Procedure: GLP-1R Activation—cAMP Assay 2
GLP-1R activation by small molecule agonists is quantified by measuring cAMP increase in CHO cells stably expressing GLP-1R (MultiSpan product #C1267-1a). 50 nL of agonists are pre-spotted in a 10 point dose response onto 384-well plate (Corning product #CL3826) using the Labcyte Echo System. The cells are harvested and plated in assay buffer (HBSS (Corning product #21-023-CV) with 20 mM Hepes (Gibco product #15630-080) and 0.1% BSA (Rockland Immunochemicals product #BSA-1000)) or 100% Human Plasma (Innovative Research product #50-643-396) at 1,000 cells/well, 10 µL/well, onto the pre-spotted plates. The cells are then incubated for 30 minutes at 37° C., 5% CO2. cAMP concentration increase is then detected using Cisbio's cAMP Gs Dynamic Kit (product #62AM4PEC) according to the manufacturer's protocol. The response is plotted against the log of the agonist concentration and fitted to a sigmoidal equation to determine the EC50.

GLP-1R [2] = target: T1, GLP-1R; assay: GLP-1R Activation - cAMP Assay 1 (cAMP increase in CHO cells stably expressing GLP-1R); format: cell-based; conditions: 10 point dose response, 30 minutes incubation at 37° C., cAMP Gs Dynamic Kit
Procedure: GLP-1R Activation—cAMP Assay 1
GLP-1R activation by a compound of the present disclosure was quantified by measuring cAMP increase in CHO cells stably expressing GLP-1R (MultiSpan product #C1267-1a). The cells were harvested and plated in growth medium (DMEM/F-12 (Corning product #10-090-CV) supplemented with 10% FBS (HyClone product #SH30071-03), penicillin/streptomycin (Corning product #30-002CI) and 10 µg/ml puromycin (Gibco product #A11138-03)) at 1,000 cells/well in a 384-well plate (Greiner product #781080). The cells were then incubated overnight at 37° C., 5% CO2. The next day, the medium was removed and the cells were washed with DPBS (Corning product #21-031-CM) before adding the assay medium (HBSS, Corning product #21-023-CV) with 20 mM Hepes (Gibco product #15630-080) and 0. 1% BSA (Rockland Immunochemicals product #BSA-1000)). Following the medium change, the cells were incubated for 1 hour at 37° C., 5% CO2. The tested GLP-1 compound was added to the cells in a 10 point dose response followed by a 30 minutes incubation at 37° C., 5% CO2. cAMP concentration increase was then detected using Cisbio's cAMP Gs Dynamic Kit (product #62AM4PEC) according to the manufacturer's protocol. The response was plotted against the log of the agonist concentration and fitted to a sigmoidal equation to determine the EC50.

T1 sequence (P43220 24-463): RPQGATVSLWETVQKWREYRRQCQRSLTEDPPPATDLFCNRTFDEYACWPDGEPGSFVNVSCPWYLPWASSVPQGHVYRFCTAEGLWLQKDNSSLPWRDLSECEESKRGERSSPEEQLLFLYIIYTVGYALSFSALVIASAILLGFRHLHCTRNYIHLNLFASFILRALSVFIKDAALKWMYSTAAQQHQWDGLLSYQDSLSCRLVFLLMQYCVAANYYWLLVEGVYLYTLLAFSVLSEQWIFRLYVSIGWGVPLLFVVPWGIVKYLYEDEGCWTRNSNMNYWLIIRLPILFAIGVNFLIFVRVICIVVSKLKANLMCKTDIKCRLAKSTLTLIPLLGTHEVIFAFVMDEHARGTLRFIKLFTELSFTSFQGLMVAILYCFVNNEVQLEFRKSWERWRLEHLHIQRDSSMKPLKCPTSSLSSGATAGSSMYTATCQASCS

Compound	EC50 (GLP-1R [1])	EC50 (GLP-1R [2])
Cn1ccc(-c2cc3nc(CN4CCC(c5cccc(OCc6ccc(C#N)cc6F)n5)CC4)n(C[C@@H]4CCO4)c3cc2C(=O)O)n1 [Example 30, 2-[[4-[6-[(4-cyano-2-fluoro-phenyl)methoxy]-2-pyridyl]-1-piperidyl]methyl]-6-(1-methylpyrazol-3-yl)-3-[[(2S)-oxetan-2-yl]methyl]benzimidazole-5-carboxylic Acid]	52.2 nM	
COCCn1c(CN2CCN(c3cccc(OCc4ccc(C#N)cc4F)n3)CC2)nc2c(F)c(Nc3ccccc3)c(C(=O)O)cc21 [Example 3, 2-((4-(6-((4-cyano-2-fluorobenzyl)oxy)pyridin-2-yl)piperazin-1-yl)methyl)-4-fluoro-1-(2-methoxyethyl)-5-(phenylamino)-1H-benzo[d]imidazole-6-carboxylic acid]	1.9 nM	
CC(C)(O)C#Cc1cc(C(=O)O)cc2c1nc(CN1CCN(c3cccc(OCc4ccc(C(N)=O)cc4F)n3)CC1)n2C[C@@H]1CCO1 [Example 13, 2-[[4-[6-[(4-carbamoyl-2-fluoro-phenyl)methoxy]-2-pyridyl]piperazin-1-yl]methyl]-7-(3-hydroxy-3-methyl-but-1-ynyl)-3-[[(2S)-oxetan-2-yl]methyl]benzimidazole-5-carboxylic Acid]	31.9 nM	
COCCn1c(C[C@H]2CC[C@@H](c3cccc(OCc4ccc(C#N)cc4F)n3)CC2)nc2c(-c3ccn(C)n3)cc(C(=O)O)cc21 [Example 31, 2-(((1s,4s)-4-(6-((4-cyano-2-fluorobenzyl)oxy)pyridin-2-yl)cyclohexyl)methyl)-1-(2-methoxyethyl)-4-(1-methyl-1H-pyrazol-3-yl)-1H-benzo[d]imidazole-6-carboxylic Acid]	134 nM	
CC(C)(C)OC(=O)Nc1cc2nc(CN3CCC(c4cccc(OCc5ccc(C#N)cc5F)n4)CC3)n(C[C@@H]3CCO3)c2cc1C(=O)O [Example 24, 6-(tert-butoxycarbonylamino)-2-[[4-[6-[(4-cyano-2-fluoro-phenyl)methoxy]-2-pyridyl]-1-piperidyl]methyl]-3-[[(2S)-oxetan-2-yl]methyl]benzimidazole-5-carboxylic Acid]	0.51 nM	
N#Cc1ccc(COc2nc(N3CCN(Cc4nc5c(F)cc(C(=O)O)cc5n4C[C@@H]4CCO4)CC3)ccc2F)c(F)c1 [Example 22, 2-[[4-[6-[(4-cyano-2-fluoro-phenyl)methoxy]-5-fluoro-2-pyridyl]piperazin-1-yl]methyl]-7-fluoro-3-[[(2S)-oxetan-2-yl]methyl]benzimidazole-5-carboxylic Acid]	0.22 nM	
COCCn1c(CN2CCC(c3cccc(OCc4ccc(C#N)cc4F)n3)CC2)nc2c(C)cc(C(=O)O)cc21 [Example 28, 2-((4-(6-((4-cyano-2-fluorobenzyl)oxy)pyridin-2-yl)piperidin-1-yl)methyl)-1-(2-methoxyethyl)-4-methyl-1H-benzo[d]imidazole-6-carboxylic Acid]		21 nM
COCCn1c(CN2CCC(c3cccc(OCc4ccc(C#N)cc4F)n3)CC2)nc2c(F)c(Nc3ccccc3)c(C(=O)O)cc21 [Example 1, 2-((4-(6-((4-cyano-2-fluorobenzyl)oxy)pyridin-2-yl)piperidin-1-yl)methyl)-4-fluoro-1-(2-methoxyethyl)-5-(phenylamino)-1H-benzo[d]imidazole-6-carboxylic acid]	15.1 nM	
Cn1ccc(-c2cc(C(=O)O)cc3c2nc(CN2CCC(c4ccnc(OCc5ccc(C#N)cc5F)n4)CC2)n3C[C@@H]2CCO2)n1 [Example 4, (S)-2-((4-(2-((4-cyano-2-fluorobenzyl)oxy)pyrimidin-4-yl)piperidin-1-yl)methyl)-4-(1-methyl-1H-pyrazol-3-yl)-1-(oxetan-2-ylmethyl)-1H-benzo[d]imidazole-6-carboxylic Acid]	1.2 nM	
CC(C)(O)C#Cc1cc(C(=O)O)cc2c1nc(CN1CCC(c3cccc(OCc4ccc(C#N)cc4F)n3)CC1)n2C[C@@H]1CCO1 [Example 12]	0.81 nM	
COCCn1c(C[C@H]2CC[C@H](c3cccc(OCc4ccc(C#N)cc4F)n3)CC2)nc2c(-c3ccn(C)n3)cc(C(=O)O)cc21 [Example 32, 2-(((1r,4r)-4-(6-((4-cyano-2-fluorobenzyl)oxy)pyridin-2-yl)cyclohexyl)methyl)-1-(2-methoxyethyl)-4-(1-methyl-1H-pyrazol-3-yl)-1H-benzo[d]imidazole-6-carboxylic Acid]	10.6 nM	
Cn1ccc(-c2cc(C(=O)O)cc3c2nc(CN2CCN(c4cccc(OCc5ccc(C#N)cc5F)n4)CC2)n3C[C@@H]2CCO2)n1 [Example 19, 2-[[4-[6-[(4-cyano-2-fluoro-phenyl)methoxy]-2-pyridyl]piperazin-1-yl]methyl]-7-(1-methylpyrazol-3-yl)-3-[[(2S)-oxetan-2-yl]methyl]benzimidazole-5-carboxylic Acid]	0.3 nM	
N#Cc1ccc(COc2cccc(C3CCN(Cc4nc5c(F)cc(C(=O)O)cc5n4C[C@@H]4CCO4)CC3)n2)c(F)c1 [Example 21]	0.038 nM	
COCCn1c(CN2CCC(c3cccc(OCc4ccc(C(N)=O)cc4F)n3)CC2)nc2c(F)c(Nc3ccccc3)c(C(=O)O)cc21 [Example 2, 2-((4-(6-((4-carbamoyl-2-fluorobenzyl)oxy)pyridin-2-yl)piperidin-1-yl)methyl)-4-fluoro-1-(2-methoxyethyl)-5-(phenylamino)-1H-benzo[d]imidazole-6-carboxylic Acid]	175 nM	
Cn1ccc(-c2cc(C(=O)O)cc3c2nc(CN2CCC(c4cccc(OCc5ccc(C#N)cc5F)n4)CC2)n3C[C@@H]2CCO2)n1 [Example 18, 2-[[4-[6-[(4-cyano-2-fluoro-phenyl)methoxy]-2-pyridyl]-1-piperidyl]methyl]-7-(1-methylpyrazol-3-yl)-3-[[(2S)-oxetan-2-yl]methyl]benzimidazole-5-carboxylic Acid]	0.98 nM	
Cn1cc(-c2cc3nc(CN4CCC(c5cccc(OCc6ccc(C#N)cc6F)n5)CC4)n(C[C@@H]4CCO4)c3cc2C(=O)O)cn1 [Example 17, (S)-2-((4-(6-((4-cyano-2-fluorobenzyl)oxy)pyridin-2-yl)piperidin-1-yl)methyl)-5-(1-methyl-1H-pyrazol-4-yl)-1-(oxetan-2-ylmethyl)-1H-benzo[d]imidazole-6-carboxylic Acid]	13.3 nM	
N#Cc1ccc(COc2cccc(N3CCN(Cc4nc5c(F)cc(C(=O)O)cc5n4C[C@@H]4CCO4)CC3)n2)c(F)c1 [Example 23]	0.031 nM	
CC(C)(O)C#Cc1cc2nc(CN3CCC(c4cccc(OCc5ccc(C#N)cc5F)n4)CC3)n(C[C@@H]3CCO3)c2cc1C(=O)O [Example 16, (S)-2-((4-(6-((4-cyano-2-fluorobenzyl)oxy)pyridin-2-yl)piperidin-1-yl)methyl)-5-(3-hydroxy-3-methylbut-1-yn-1-yl)-1-(oxetan-2-ylmethyl)-1H-benzo[d]imidazole-6-carboxylic Acid]	28.8 nM	
N#Cc1ccc(COc2nc(C3CCN(Cc4nc5c(F)cc(C(=O)O)cc5n4C[C@@H]4CCO4)CC3)ccc2F)c(F)c1 [Example 20, 2-[[4-[6-[(4-cyano-2-fluoro-phenyl)methoxy]-5-fluoro-2-pyridyl]-1-piperidyl]methyl]-7-fluoro-3-[[(2S)-oxetan-2-yl]methyl]benzimidazole-5-carboxylic Acid]	0.07 nM	
N#Cc1ccc(COc2cccc(N3CCN(Cc4nc5c(-c6ccccn6)cc(C(=O)O)cc5n4C[C@@H]4CCO4)CC3)n2)c(F)c1 [Example 6]	2.6 nM	
CC(C)(O)C#Cc1cc(C(=O)O)cc2c1nc(CN1CCN(c3cccc(OCc4ccc(C#N)cc4F)n3)CC1)n2C[C@@H]1CCO1 [Example 11, 2-[[4-[6-[(4-cyano-2-fluoro-phenyl)methoxy]-2-pyridyl]piperazin-1-yl]methyl]-7-(3-hydroxy-3-methyl-but-1-ynyl)-3-[[(2S)-oxetan-2-yl]methyl]benzimidazole-5-carboxylic Acid]	1.7 nM	
N#Cc1ccc(COc2cccc(C3CCN(Cc4nc5c(-c6ccccn6)cc(C(=O)O)cc5n4C[C@@H]4CCO4)CC3)n2)c(F)c1 [Example 5, Methyl 2-[[4-[6-[(4-cyano-2-fluoro-phenyl)methoxy]-2-pyridyl]-1-piperidyl]methyl]-3-[[(2S)-oxetan-2-yl]methyl]-7-(2-pyridyl)benzimidazole-5-carboxylic Acid]	9.8 nM	
